# Assay results as given in ChEMBL document CHEMBL4219257, “Novel 8-hydroxyquinoline derivatives targeting β-amyloid aggregation, metal chelation and oxidative stress against Alzheimer's disease” (Bioorg Med Chem, 2018).
# Calls of active or inactive are those of the source. No cut-off for these calls is given here.
# Columns and labels:
# [1] = Metal chelating activity assessed as compound-Cu2+ complex formation by measuring maximum absorption wavelength at 50 uM measured after 30 mins by UV-vis spectrophotometric method (reference value: 241 nanometer)
# in vitro = conditions: PAMPA
# Description: Permeability of the compound at 100 ug/ml after 10 hrs by PAMPA
# PC-12 [2] = assay: Cytoprotection against H2O2-induced apoptosis in rat PC12 cells assessed as late apoptotic cells at 10 uM preincubated for 4 hrs followed by H2O2 addition measured after 24 hrs by Annexin V-FITC/propidium iodide staining based flow cytometry (reference value: 32.6%); assay type: functional
# [3] = Inhibition of Cu2+ - induced amyloid beta (1 to 42) (unknown origin) aggregation at 50 uM after 24 hrs by thioflavin T-based fluorometric assay relative to control
# Mus musculus [4] = assay: Acute toxicity in Kunming mouse assessed as fur sleekness up to 2000 mg/kg, po measured after 4 hrs; assay type: organism-based; conditions: in vivo
# [5] = Metal chelating activity assessed as compound-Fe2+ complex formation by measuring maximum absorption wavelength at 50 uM measured after 30 mins by UV-vis spectrophotometric method (reference value: 241 nanometer)
# PC-12 [6] = assay: Cytoprotection against oligomycin A-induced oxidative stress in rat PC12 cells assessed as increase in cell viability up to 10 uM after 24 hrs by MTT assay; assay type: functional, cell-based
# PC-12 [7] = assay: Inhibition of H2O2-induced ROS level in rat PC12 cells preincubated for 4 hrs followed by H2O2 addition measured after 24 hrs by DCFH-DA staining based flow cytometry; assay type: functional, cell-based
# PC-12 [8] = assay: Cytoprotection against H2O2-induced apoptosis in rat PC12 cells assessed as live cells at 10 uM preincubated for 4 hrs followed by H2O2 addition measured after 24 hrs by Annexin V-FITC/propidium iodide staining based flow cytometry (reference value: 57%); assay type: functional
# [9] = Metal chelating activity assessed as mole fraction of compound required to show 2:1 stoichiometry for compound-Zn2+ complex at 50 uM by Job's plot analysis
# [10] = Metal chelating activity assessed as compound-Fe2+ complex formation at 50 uM measured after 20 mins by fluorescence spectroscopic method
# [11] = biological target: T1, Amyloid-beta precursor protein (Homo sapiens, UniProt P05067); assay: Inhibition of HFIP-pretreated amyloid beta (1 to 42) (unknown origin) self-induced aggregation after 48 hrs by thioflavin T-based fluorometric assay
# T1 sequence (P05067 whole entry): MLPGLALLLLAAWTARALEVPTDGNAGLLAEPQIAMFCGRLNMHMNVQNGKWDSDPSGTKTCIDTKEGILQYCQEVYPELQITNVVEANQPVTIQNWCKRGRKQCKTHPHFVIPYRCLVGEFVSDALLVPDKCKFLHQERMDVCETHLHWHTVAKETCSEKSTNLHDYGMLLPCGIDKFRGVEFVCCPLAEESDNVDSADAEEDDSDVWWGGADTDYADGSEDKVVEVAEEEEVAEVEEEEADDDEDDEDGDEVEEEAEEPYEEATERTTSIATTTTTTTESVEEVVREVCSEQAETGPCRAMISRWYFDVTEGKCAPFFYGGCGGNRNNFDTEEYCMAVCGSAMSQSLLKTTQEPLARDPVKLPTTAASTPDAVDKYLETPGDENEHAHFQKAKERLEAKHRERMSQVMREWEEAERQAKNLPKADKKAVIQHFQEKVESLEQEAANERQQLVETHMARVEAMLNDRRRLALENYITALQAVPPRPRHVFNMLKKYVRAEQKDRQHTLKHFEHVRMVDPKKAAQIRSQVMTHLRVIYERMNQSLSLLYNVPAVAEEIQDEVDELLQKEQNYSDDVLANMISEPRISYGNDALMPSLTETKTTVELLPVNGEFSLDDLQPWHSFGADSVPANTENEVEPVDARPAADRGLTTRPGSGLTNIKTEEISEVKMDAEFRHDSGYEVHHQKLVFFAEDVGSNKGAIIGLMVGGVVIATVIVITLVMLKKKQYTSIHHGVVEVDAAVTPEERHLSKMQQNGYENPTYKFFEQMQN
# PC-12 [12] = assay: Cytoprotection against H2O2-induced apoptosis in rat PC12 cells assessed as late apoptotic cells at 5 uM preincubated for 4 hrs followed by H2O2 addition measured after 24 hrs by Annexin V-FITC/propidium iodide staining based flow cytometry (reference value: 32.6%); assay type: functional
# [13] = Metal chelating activity assessed as mole fraction of compound required to show 2.3:1 stoichiometry for compound-Cu2+ complex at 50 uM by Job's plot analysis
# PC-12 [14] = assay: Inhibition of H2O2-induced ROS level in rat PC12 cells assessed as mean fluorescence intensity at 2.5 uM preincubated for 4 hrs followed by H2O2 addition measured after 24 hrs by DCFH-DA staining based flow cytometry (reference value: 16947); assay type: functional
# Mus musculus [15] = assay: Acute toxicity in Kunming mouse assessed as effect on water consumption up to 2000 mg/kg, po measured after 4 hrs; assay type: organism-based; conditions: in vivo
# Mus musculus [16] = assay: Hepatotoxicity in Kunming mouse up to 2000 mg/kg, po measured after 14 days by macroscopic method; assay type: toxicity, organism-based; conditions: in vivo, 336 h
# PC-12 [17] = assay: Cytoprotection against H2O2-induced apoptosis in rat PC12 cells assessed as necrotic cells at 2.5 uM preincubated for 4 hrs followed by H2O2 addition measured after 24 hrs by Annexin V-FITC/propidium iodide staining based flow cytometry (reference value: 8.9%); assay type: functional
# PC-12 [18] = assay: Cytoprotection against H2O2-induced apoptosis in rat PC12 cells assessed as early apoptotic cells at 2.5 uM preincubated for 4 hrs followed by H2O2 addition measured after 24 hrs by Annexin V-FITC/propidium iodide staining based flow cytometry (reference value: 1.5%); assay type: functional
# [19] = Metal chelating activity assessed as compound-Zn2+ complex formation by measuring maximum absorption wavelength at 50 uM measured after 30 mins by UV-vis spectrophotometric method (reference value: 241 nanometer)
# [20] = Inhibition of Zn2+ - induced amyloid beta (1 to 42) (unknown origin) aggregation at 50 uM after 24 hrs by thioflavin T-based fluorometric assay relative to control
# PC-12 [21] = assay: Cytoprotection against H2O2-induced oxidative stress in rat PC12 cells assessed as increase in cell viability after 24 hrs by MTT assay; assay type: functional, cell-based
# [22] = biological target: T1, Amyloid-beta precursor protein; assay: Inhibition of HFIP-pretreated amyloid beta (1 to 42) (unknown origin) self-induced aggregation at 10 uM after 48 hrs by thioflavin T-based fluorometric assay relative to control
# PC-12 [23] = assay: Inhibition of H2O2-induced ROS level in rat PC12 cells assessed as mean fluorescence intensity at 5 uM preincubated for 4 hrs followed by H2O2 addition measured after 24 hrs by DCFH-DA staining based flow cytometry (reference value: 16947); assay type: functional
# PC-12 [24] = assay: Cytoprotection against H2O2-induced apoptosis in rat PC12 cells assessed as early apoptotic cells at 10 uM preincubated for 4 hrs followed by H2O2 addition measured after 24 hrs by Annexin V-FITC/propidium iodide staining based flow cytometry (reference value: 1.5%); assay type: functional
# Mus musculus [25] = assay: Acute toxicity in Kunming mouse assessed as effect on food consumption up to 2000 mg/kg, po measured after 4 hrs; assay type: organism-based; conditions: in vivo
# PC-12 [26] = assay: Cytoprotection against H2O2-induced apoptosis in rat PC12 cells assessed as late apoptotic cells at 2.5 uM preincubated for 4 hrs followed by H2O2 addition measured after 24 hrs by Annexin V-FITC/propidium iodide staining based flow cytometry (reference value: 32.6%); assay type: functional
# Mus musculus [27] = assay: Nephrotoxicity in Kunming mouse up to 2000 mg/kg, po measured after 14 days by macroscopic method; assay type: toxicity, organism-based; conditions: in vivo, 336 h
# Mus musculus [28] = assay: Acute toxicity in Kunming mouse assessed as mortality up to 2000 mg/kg, po measured after 14 days; assay type: organism-based; conditions: in vivo, 336 h
# Mus musculus [29] = assay: Acute toxicity in Kunming mouse assessed as death up to 2000 mg/kg, po measured after 4 hrs; assay type: organism-based; conditions: in vivo
# [30] = Metal chelating activity assessed as compound-Fe3+ complex formation at 50 uM measured after 20 mins by fluorescence spectroscopic method
# Mus musculus [31] = assay: Acute toxicity in Kunming mouse assessed as effect on body weight up to 2000 mg/kg, po measured after 4 hrs; assay type: organism-based; conditions: in vivo
# PC-12 [32] = assay: Inhibition of H2O2-induced ROS level in rat PC12 cells assessed as mean fluorescence intensity at 10 uM preincubated for 4 hrs followed by H2O2 addition measured after 24 hrs by DCFH-DA staining based flow cytometry (reference value: 16947); assay type: functional
# PC-12 [33] = assay: Cytoprotection against H2O2-induced apoptosis in rat PC12 cells assessed as live cells at 5 uM preincubated for 4 hrs followed by H2O2 addition measured after 24 hrs by Annexin V-FITC/propidium iodide staining based flow cytometry (reference value: 57%); assay type: functional
# [34] = Metal chelating activity assessed as compound-Cu2+ complex formation at 50 uM measured after 20 mins by fluorescence spectroscopic method
compound,measurement,setting,value
O=C(CCc1ccccc1Cl)N1CCN(Cc2ccc(O)c3ncccc23)CC1,Activity,[1],261 nm
same,"Papp at 10 h, 100 ug/ml",in vitro,110 nm/s
same,Activity,PC-12 [2],5.8%
same,inhibition,[3],88.9%
same,Activity,Mus musculus [4],Non-Toxic
same,Activity,[5],265 nm
same,Activity,PC-12 [6],Active
same,inhibition,PC-12 [7],Dose-dependent effect
same,Activity,PC-12 [8],90.9%
same,Activity,[9],0.66 molar ratio
same,Activity,[10],Active
same,IC50,[11],5.64 µM
same,Activity,PC-12 [12],8%
same,Activity,[13],0.7 molar ratio
same,Flu intensity,PC-12 [14],14556
same,Activity,Mus musculus [15],Non-Toxic
same,Activity,Mus musculus [16],Non-Toxic
same,Activity,PC-12 [17],3.7%
same,Activity,PC-12 [18],2.1%
same,Activity,[19],260 nm
same,inhibition,[20],73.3%
same,Activity,PC-12 [21],Dose-dependent effect
same,inhibition,[22],65.8%
same,Flu intensity,PC-12 [23],10332
same,Activity,PC-12 [24],2%
same,Activity,Mus musculus [25],Non-Toxic
same,Activity,PC-12 [26],14.4%
same,Activity,Mus musculus [27],Non-Toxic
same,Activity,Mus musculus [28],Non-Toxic
same,Activity,Mus musculus [29],Non-Toxic
same,Activity,[30],Active
same,Activity,Mus musculus [31],Non-Toxic
same,Flu intensity,PC-12 [32],9392
same,Activity,PC-12 [33],88.3%
same,Activity,[34],Active
